The values below come from PubChem BioAssay AID330 (DTP/NCI, 2004).

The subject of the assay is P388 leukemia ip, CD2F1 mice, survival T/C. In words: NCI In Vivo Anticancer Drug Screen. Data for tumor model P388 Leukemia (intraperitoneal) in CD2F1 (CDF1) mice. To be noted: endpoint: median survival time, higher = longer survival. In outline: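 Mice carrying the transplanted tumor received test compound or vehicle. Survival was recorded in each group, and the value is the treated-group measurement divided by that of the vehicle-treated control group.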

Where [1] appears, read: dose: 50.0 mg/kg/injection, schedule: Q04DX003 (ip), vehicle: saline with Tween-80.
Where [2] appears, read: dose: 100.0 mg/kg/injection, schedule: Q04DX003 (ip), vehicle: Klucel (hydroxypropylcellulose) (HPC).
Where [3] appears, read: dose: 200.0 mg/kg/injection, schedule: Q04DX003 (ip), vehicle: Klucel (hydroxypropylcellulose) (HPC).
The mark [4] stands for this setting: dose: 50.0 mg/kg/injection, schedule: Q01DX009 (ip), vehicle: saline with Tween-80.
Where [5] appears, read: dose: 100.0 mg/kg/injection, schedule: Q01DX009 (ip), vehicle: saline with Tween-80.
[6] abbreviates: dose: 25.0 mg/kg/injection, schedule: Q01DX009 (ip), vehicle: saline with Tween-80.
Setting [7] is: dose: 50.0 mg/kg/injection, schedule: Q01DX005 (ip), vehicle: saline with Tween-80.
Where [8] appears, read: dose: 100.0 mg/kg/injection, schedule: Q01DX005 (ip), vehicle: saline with Tween-80.

Several values for one entry are separate records, joined by “and”; a condition that tells them apart may be missing. Equal entries are not always repeated. Toxic doses and inconclusive results are not listed.

As to `CCn1c(=O)c2[nH]c(Cl)nc2n(C)c1=O`, the T/C runs as follows: (dose: 16.0 mg/kg/injection, schedule: Q01DX009 (ip), vehicle: Klucel (hydroxypropylcellulose) (HPC)) 111 % of control; (dose: 25.0 mg/kg/injection, schedule: Q01DX009 (ip), vehicle: Klucel (hydroxypropylcellulose) (HPC)) 102 % of control; (dose: 32.0 mg/kg/injection, schedule: Q01DX009 (ip), vehicle: Klucel (hydroxypropylcellulose) (HPC)) 107 % of control; (dose: 50.0 mg/kg/injection, schedule: Q01DX009 (ip), vehicle: Klucel (hydroxypropylcellulose) (HPC)) 94 % of control; (dose: 64.0 mg/kg/injection, schedule: Q01DX009 (ip), vehicle: Klucel (hydroxypropylcellulose) (HPC)) 102 % of control.
Consider `COc1cc(C=Nc2ccc(C(=O)O)cc2)ccc1N(CCCl)CCCl`, for which the T/C is 155 % of control (dose: 37.5 mg/kg/injection, schedule: Q04DX003 (ip), vehicle: saline with Tween-80) and 90 % of control under setting [1].
Regarding `O=[N+]([O-])c1ccc2c(c1)nc(-c1ccccn1)n2CCc1ccccn1`, the T/C was 107 % of control under setting [2]; 101 % of control under setting [3]; 107 % of control (dose: 400.0 mg/kg/injection, schedule: Q04DX003 (ip), vehicle: Klucel (hydroxypropylcellulose) (HPC)).
Regarding `Cc1ccccc1CC(C)c1ccccc1` (stereo not given), the T/C runs as follows: under setting [4], 100 % of control; under setting [5], 123 % of control.
On to `CCn1cnc(-c2ccccc2)c1-c1ccccc1`, for which the T/C is 109 % of control (dose: 25.0 mg/kg/injection, schedule: Q04DX003 (ip), vehicle: saline with Tween-80) and 100 % of control under setting [1].
As to `CC(CCc1ccccc1)NC(C)C(O)c1ccc(O)cc1` (stereo not given), the T/C was 100 % of control under setting [6], 100 % of control under setting [4] and 90 % of control under setting [5].
Consider `O=C1c2cccc3cccc(c23)C(=O)N1CCc1ccccn1`, for which the T/C reads like this: under setting [7], 107 % of control; under setting [8], 98 % of control.
For `N/C(CC(=O)Nc1ccc(F)cc1)=N\O`, the T/C by setting is: (dose: 60.0 mg/kg/injection, schedule: Q01DX005 (ip), vehicle: saline with Tween-80) 108 % of control; (dose: 120.0 mg/kg/injection, schedule: Q01DX005 (ip), vehicle: saline with Tween-80) 102 % of control; (dose: 240.0 mg/kg/injection, schedule: Q01DX005 (ip), vehicle: saline with Tween-80) 100 % of control.
As to `CB1N(c2ccccc2)N=NN1C(C)(C)C`, the T/C by setting is: (dose: 15.0 mg/kg/injection, schedule: Q01DX005 (ip), vehicle: Klucel (hydroxypropylcellulose) (HPC)) 97 % of control; (dose: 30.0 mg/kg/injection, schedule: Q01DX005 (ip), vehicle: Klucel (hydroxypropylcellulose) (HPC)) 102 % of control; (dose: 60.0 mg/kg/injection, schedule: Q01DX005 (ip), vehicle: Klucel (hydroxypropylcellulose) (HPC)) 107 % of control; (dose: 120.0 mg/kg/injection, schedule: Q01DX005 (ip), vehicle: Klucel (hydroxypropylcellulose) (HPC)) 110 % of control; (dose: 240.0 mg/kg/injection, schedule: Q01DX005 (ip), vehicle: Klucel (hydroxypropylcellulose) (HPC)) 91 % of control.
Consider `N#CC(Br)(CBr)COc1ccc(Cl)cc1Cl` (stereo not given), for which the T/C reads like this: (dose: 12.5 mg/kg/injection, schedule: Q01DX009 (ip), vehicle: saline with Tween-80) 100 % of control; under setting [6], 118 % of control; under setting [4], 108 % of control.
In the case of `CCCCCCC(=O)/C=C/c1ccc(OC(=O)c2ccc(Cl)cc2)cc1`, the T/C runs as follows: (dose: 6.25 mg/kg/injection, schedule: Q01DX009 (ip), vehicle: saline) 97 % of control; (dose: 12.5 mg/kg/injection, schedule: Q01DX009 (ip), vehicle: saline) 94 % of control; (dose: 25.0 mg/kg/injection, schedule: Q01DX009 (ip), vehicle: saline) 94 % of control; (dose: 100.0 mg/kg/injection, schedule: Q01DX009 (ip), vehicle: saline) 92 % of control; (dose: 200.0 mg/kg/injection, schedule: Q01DX009 (ip), vehicle: saline) 92 % of control.
Consider `Oc1ccccc1C=Nc1ccccc1N=Cc1ccccc1O.[Cu]`, for which the T/C (dose: 50.0 mg/kg/injection, schedule: Q01DX005 (ip), vehicle: Klucel (hydroxypropylcellulose) (HPC)) was 99 % of control; the T/C (dose: 100.0 mg/kg/injection, schedule: Q01DX005 (ip), vehicle: Klucel (hydroxypropylcellulose) (HPC)) was 97 % of control; the T/C (dose: 200.0 mg/kg/injection, schedule: Q01DX005 (ip), vehicle: Klucel (hydroxypropylcellulose) (HPC)) was 90 % of control.
`CCN(CC)CCn1c2c(c3ccc(OC)cc31)CCN1CC3CC(OC(=O)c4cc(OC)c(OC)c(OC)c4)C(OC)C(C(=O)OC)C3CC21` (stereo not given): the T/C reads like this: (dose: 25.0 mg/kg/injection, schedule: Q01DX005 (ip), vehicle: saline) 97 % of control; (dose: 50.0 mg/kg/injection, schedule: Q01DX005 (ip), vehicle: saline) 96 % of control; (dose: 100.0 mg/kg/injection, schedule: Q01DX005 (ip), vehicle: saline) 101 % of control; (dose: 200.0 mg/kg/injection, schedule: Q01DX005 (ip), vehicle: saline) 106 % of control.
`O=C1CC2(C(=O)N1CN1CCN(c3ccc(F)cc3)CC1)c1ccccc1-c1ccccc12` (tested in a mixture with another compound): under “dose: 100.0 mg/kg/injection, schedule: Q04DX003 (ip), vehicle: saline with Tween-80”, the T/C is 90 % of control.
`CS/C(=C1/C(=O)N(c2ccccc2)N=C1c1ccc(Br)cc1)N1CC1`: the T/C is 95 % of control under setting [2] and 101 % of control under setting [3].
As for `CC(C)=CCC(O)C1=CC(=O)c2c(O)ccc(O)c2C1=O` (stereo not given), the T/C is, setting by setting: (dose: 0.5 mg/kg/injection, schedule: Q01DX009 (ip), vehicle: saline with Tween-80) 102 % of control; (dose: 1.0 mg/kg/injection, schedule: Q01DX009 (ip), vehicle: saline with Tween-80) 110 % of control; (dose: 1.25 mg/kg/injection, schedule: Q01DX009 (ip), vehicle: Klucel (hydroxypropylcellulose) (HPC)) 107 % of control and 109 % of control and 110 % of control; (dose: 2.0 mg/kg/injection, schedule: Q01DX009 (ip), vehicle: saline with Tween-80) 110 % of control; (dose: 2.5 mg/kg/injection, schedule: Q01DX009 (ip), vehicle: Klucel (hydroxypropylcellulose) (HPC)) 107 % of control and 108 % of control and 112 % of control; (dose: 2.5 mg/kg/injection, schedule: Q01DX009 (ip), vehicle: saline with Tween-80) 102 % of control. In addition, the T/C (dose: 5.0 mg/kg/injection, schedule: Q01DX009 (ip), vehicle: Klucel (hydroxypropylcellulose) (HPC)) is 117 % of control and 120 % of control; the T/C (dose: 5.0 mg/kg/injection, schedule: Q01DX009 (ip), vehicle: saline with Tween-80) is 108 % of control; the T/C (dose: 10.0 mg/kg/injection, schedule: Q01DX009 (ip), vehicle: Klucel (hydroxypropylcellulose) (HPC)) was 110 % of control and 120 % of control; the T/C (dose: 15.0 mg/kg/injection, schedule: Q01DX009 (ip), vehicle: saline with Tween-80) is 100 % of control; the T/C (dose: 15.0 mg/kg/injection, schedule: Q04DX003 (ip), vehicle: saline with Tween-80) was 100 % of control; the T/C (dose: 30.0 mg/kg/injection, schedule: Q01DX009 (ip), vehicle: saline with Tween-80) is 90 % of control. Moreover, the T/C is, setting by setting: (dose: 30.0 mg/kg/injection, schedule: Q04DX003 (ip), vehicle: saline with Tween-80) 109 % of control; under setting [7], 97 % of control; under setting [8], 91 % of control; (dose: 200.0 mg/kg/injection, schedule: Q01DX005 (ip), vehicle: saline with Tween-80) 99 % of control.
For `CC1/C(=N\Nc2ccc([N+](=O)[O-])cc2)CC2C3(C)CCC2(C(C)C(=O)O)C(=O)C13` (stereo not given), the T/C (dose: 100.0 mg/kg/injection, schedule: Q04DX003 (ip), vehicle: saline) was 93 % of control; the T/C (dose: 200.0 mg/kg/injection, schedule: Q04DX003 (ip), vehicle: saline) was 93 % of control; the T/C (dose: 400.0 mg/kg/injection, schedule: Q04DX003 (ip), vehicle: saline) is 95 % of control.
As for `O=C1C=CC(=O)N1CC[P+](c1ccccc1)(c1ccccc1)c1ccccc1`, the T/C is 118 % of control (dose: 0.78 mg/kg/injection, schedule: Q01DX009 (ip), vehicle: water); 102 % of control (dose: 1.56 mg/kg/injection, schedule: Q01DX009 (ip), vehicle: water); 106 % of control (dose: 3.13 mg/kg/injection, schedule: Q01DX009 (ip), vehicle: water); 105 % of control (dose: 6.25 mg/kg/injection, schedule: Q01DX009 (ip), vehicle: water); 112 % of control (dose: 12.5 mg/kg/injection, schedule: Q01DX009 (ip), vehicle: water); 112 % of control and 120 % of control (dose: 25.0 mg/kg/injection, schedule: Q01DX009 (ip), vehicle: water).
